Test results taken from patent publication US20100317703A1, “METHOD FOR INHIBITING BRASSININ OXIDASE” (UNIVERSITY OF SASKATCHEWAN, priority 2009, published 2010).

Experiments:
[1] = system: mycelial cultures of L. maculans; test: Antifungal activity: total protein content of cell-free extracts of treated mycelial cultures; format: cell-based, Leptosphaeria maculans; conditions: 24 h, control culture = 1.0
Description: (§1) Liquid cultures of L. maculans (virulent isolate BJ-125, IBCN collection, AAFC) were handled as described in the literature.^13 Fungal spores were subcultured on V8 agar under continuous light at 23±1° C.; after 15 days, fungal spores were collected aseptically and stored at −20° C.^14 Liquid cultures were initiated by inoculating minimal media (100 mL)^15 with fungal spores at 10^7/mL in Erlenmeyer flasks, followed by incubation on a shaker under constant light at 23±1° C.
(§2) For analysis of BO induction, 72 h old liquid cultures (20 mL) were co-incubated with test compounds (final concentrations in culture 0.10, 0.20, and 0.50 mM), and after an additional incubation for 24 h, the mycelia were separated from the culture broth by filtration.
(§3) Frozen mycelia (0.3-1.4 g) from L. maculans were suspended in ice-cold extraction buffer (1 mL) and ground (mortar) for 5 min. The extraction buffer consisted of diethanolamine(DEA, 25 mM, pH 8.3), 5% (v/v) glycerol, D,L-dithiothreitol (DTT, 1 mM), and 1/200 (v/v) protease inhibitor cocktail (P-8215, Sigma-Aldrich Canada). The homogenate was centrifuged at 4° C. for 30 min at 50000 g. The resulting supernatant was used for determination of specific activity of BO. Protein concentrations were determined as described by Bradford^16 using the Coomassie Brilliant Blue method with BSA as a standard.
(§4) Mycelial cultures of L. maculans were incubated with the test compounds (0.10, 0.20, and 0.50 mM) for 24 h to evaluate potential induction of BO activity. The cultures were filtered, the mycelia were extracted with extraction buffer, and the resulting cell-free extracts were analyzed for BO activity using brassinin (1) as substrate. The total protein content of each cell-free extract was determined using a calibration curve built using BSA.

brassinin oxidase (BO) [2] = conditions: 0.30 mM; reference compound, cited from ref. 17; cited from earlier work
[3] = system: brassinin oxidase (BO) activity in mycelial cultures of L. maculans; test: Inducer effect of paldoxins: BO activity in cell-free extracts of treated mycelial cultures; format: cell-based, Leptosphaeria maculans; conditions: 24 h, control culture = 1.0
Description: as §1, §2, §3
(§5) The reaction mixture contained DEA (20 mM, pH 8.3), DTT (1 mM), 0.1% (v/v) Triton X-100, brassinin (1, 1.0 mM), phenazine (0.50 mM), and protein extract (50-100 μL) in a total volume of 500 μL. The reaction was carried out at 24° C. for 20 min. A control reaction was stopped by the addition of EtOAc (2 mL) at t=0. The product was extracted with EtOAc (2 mL) and concentrated to dryness. The extract was dissolved in CH3CN (200 μL) and analyzed by HPLC-DAD. The amounts of brassinin (1) and indole-3-carboxaldehyde (3) in the reaction assay were determined using calibration curves built with […]. One enzyme unit (U) is defined as the amount of the enzyme that catalyzes the conversion of one micromole of substrate per minute (μmol·min^−1=U).
as §4

brassinin oxidase (BO) [4] = test: Inhibitory effect of paldoxins on purified BO (brassinin as substrate, HPLC-DAD); format: biochemical, Leptosphaeria maculans; conditions: for Inhibiton (%) of BO: brassinin 0.10 mM, purified BO, ± SD of four independent experiments
Description: For purification of brassinin oxidase, 600 mL of 48 h old liquid cultures prepared as described above, were incubated with 3-phenylindole (19, 0.05 mM final concentration in cultures to induce BO) for an additional 24 h and then gravity filtered to separate mycelia from culture broth. The mycelia was stored at −20° C. up to 72 h and used to obtain protein extracts containing BO activity.
as §5
The purification of BO was performed in four steps as previously described.^17 The purified enzyme was used for screening test compounds for inhibitory activity. To determine potential inhibitors of BO, inhibition experiments were carried out using brassinin (1, 0.10 mM final concentration) and test compounds (0.10 and 0.30 mM final concentrations). Standard deviation values for assays were determined from four independent experiments.
The inhibitory effects of test compounds on BO activity were tested at 0.10 mM and 0.30 mM using brassinin (1) as substrate (0.10 mM) and purified BO.

[5] = 0.10 mM added to mycelial cultures
[6] = 0.20 mM added to mycelial cultures
[7] = 0.50 mM added to mycelial cultures

Row | Inhibiton (%) of BO (brassinin oxidase (BO) [4]; test compound 0.10 mM) [%] | Inhibiton (%) of BO (brassinin oxidase (BO) [4]; test compound 0.30 mM) [%] | Structure (SMILES) | Relative Protein [1, 5] | Relative Protein [1, 6] | Relative Protein [1, 7] | Relative Specific Activity of BO [3, 5] | Relative Specific Activity of BO [3, 6] | Relative Specific Activity of BO [3, 7] | also measured
1 | 51 ± 4 |  | COc1ccc2[nH]cc(-c3nccs3)c2c1 [I(c), 5-Methoxycamalexin] | 0.28 | 0.24 | 0.13 | 1.7 ± 0.3 | 5.8 ± 0.6 | 1.6 ± 0.3 | Inhibiton (%) of BO (brassinin oxidase (BO) [4]; test compound 0.30 mM, listed as 5-Methoxycamalexin I(c)): 72 ± 1%; Inhibiton (%) of BO (brassinin oxidase (BO) [4]; test compound 0.30 mM, listed as 5-methoxycamalexin I(c)): ca. 72%
2 | 23 ± 6 | 37 ± 8 | CSC1=NCc2c([nH]c3ccccc23)S1 [Cyclobrassinin] |  |  |  |  |  |  | 
3 |  |  | CSC(=S)NCc1c[nH]c2ccccc12 [brassinin, Brassinin] |  |  |  |  |  |  | Km (brassinin oxidase (BO) [4]; under the enzyme assay conditions): 150 µM
4 | 11 ± 4 | 17 ± 6 | Fc1ccc2c(-c3ccccc3)c[nH]c2c1 [I(e), 6-Fluoro-3-phenylindole] |  |  |  |  |  |  | 
5 | 29 ± 10 | 46 | Fc1ccc2c(-c3nccs3)c[nH]c2c1 [I(b), 6-Fluorocamalexin] | 0.36 | 0.28 | 0.24 | 3.9 ± 0.1 | 4.0 ± 0.2 | 1.8 ± 0.3 | 
6 | 30 ± 4 | 53 ± 4 | c1ccc2c(-c3nccs3)c[nH]c2c1 [Camalexin] | 0.28 | 0.24 | 0.10 | 4.5 ± 0.5 | 6.9±0.3 | 2.5 ± 0.1 | Inhibiton (%) of BO (brassinin oxidase (BO) [4]; test compound 0.30 mM, listed as Camalexin I(h)): 53 ± 7%; Inhibiton (%) of BO (brassinin oxidase (BO) [4]; test compound 0.30 mM, listed as camalexin): 53%
7 |  |  | c1ccc2cc(-c3cnsc3)ccc2c1 [I(g)] | 0.26 | 0.17 | 0.16 | 2.6 ± 0.2 | 8.5 ± 0.1 | 16.3 ± 3.3 | 
8 | 47 ± 5 |  | Fc1ccc2[nH]cc(-c3nccs3)c2c1 [I(a), 5-Fluorocamalexin] | 0.30 | 0.23 | 0.19 | 5.0 ± 0.2 | 4.9 ± 0.4 | 7.9 ± 0.6 | Inhibiton (%) of BO (brassinin oxidase (BO) [4]; test compound 0.30 mM, listed as 5-Fluorocamalexin I(a)): 63 ± 2%; Inhibiton (%) of BO (brassinin oxidase (BO) [4]; test compound 0.30 mM, listed as 5-fluorocamalexin I(a)): ca. 63%
9 | 11 ± 5 | 23 ± 6 | CSC(=S)NCc1cc2ccccc2[nH]1 [Isobrassinin] |  |  |  |  |  |  | 
10 | 41 ± 6 |  | COc1ccc2c(-c3nccs3)c[nH]c2c1 [I(d), 6-Methoxycamalexin] | 0.27 | 0.16 | 0.11 | 2.3 ± 0.1 | 3.7 ± 0.2 | 4.0 ± 0.1 | Inhibiton (%) of BO (brassinin oxidase (BO) [4]; test compound 0.30 mM, listed as 6-Methoxycamalexin I(d)): 63 ± 5%; Inhibiton (%) of BO (brassinin oxidase (BO) [4]; test compound 0.30 mM, listed as 6-methoxycamalexin I(b)): ca. 63%

Row | Structure (SMILES) | Inhibiton (%) of BO (brassinin oxidase (BO) [4]; test compound 0.10 mM) [%] | Inhibiton (%) of BO (brassinin oxidase (BO) [4]; test compound 0.30 mM) [%] | Relative Protein [1, 5] | Relative Protein [1, 6] | Relative Protein [1, 7] | Relative Specific Activity of BO [3, 5] | Relative Specific Activity of BO [3, 6] | Relative Specific Activity of BO [3, 7] | also measured
11 | c1ccc2[nH]c(-c3cscn3)nc2c1 [Thiabendazole, reference compound] | 16 ± 3 | 25 ± 7 | 0.35 | 0.28 | 0.06 | 1.9 ± 0.2 | 4.1 ± 0.2 | 4.9 ± 0.3 | BO inhibitory activity (brassinin oxidase (BO) [2]): ca. 25%
